TGI and GI50 data for 18 compounds are collected here from PubChem BioAssay (NCI).

Some test systems named below: DMS 273 small cell lung; SK-MEL-2 melanoma; ACHN renal; KM20L2 colon; DMS 114 small cell lung; HCT-116 colon; OVCAR-3 ovarian; NCI/ADR-RES ovarian; PC-3 prostate; A498 renal.
Assay in all cases: DTP human tumour cell line panel, 48 h

“And” between values parts separate entries of the source, which are not always exact repeats. Equal values may be shown once.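 Cells were grown in 96-well plates and exposed to each compound for 48 hours at five concentrations; endpoints were interpolated linearly between bracketing concentrations, or set to the highest concentration if not reached. GI50 marks 50% less growth. TGI is the concentration that stops growth completely.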 Where only a bound is given, the exact number is not on record here.

Turning to `O=C(c1ccccc1)C1N=NN(Cc2ccccc2[N+](=O)[O-])C1C(=O)c1ccccc1` (stereo unspecified), the total growth inhibition concentration (TGI) in the experiment with DMS 273 small cell lung, with SK-MEL-2 melanoma, with ACHN renal, in the experiment on KM20L2 colon, with DMS 114 small cell lung and in the experiment with HCT-116 colon was above 100 µM throughout. For the same compound, in the experiment on OVCAR-3 ovarian, the TGI was above 100 µM.

As to `[N-]=[N+]=CC(=O)CCC(N)C(=O)O` (stereo unspecified), the TGI in the experiment with DMS 273 small cell lung was above 250 µM; in the experiment with SK-MEL-2 melanoma, 245 µM; in the experiment on ACHN renal it was above 250 µM; with NCI/ADR-RES ovarian it was above 245 µM; with KM20L2 colon it was above 250 µM; with DMS 114 small cell lung, 95.5 µM. In addition, the TGI with PC-3 prostate is above 250 µM; with HCT-116 colon, above 250 µM; with A498 renal, above 250 µM; in the experiment on OVCAR-3 ovarian, above 244 µM. Moreover, the GI50 in the experiment on SK-MEL-2 melanoma was 24.6 µM; in the experiment with ACHN renal, 5.54 µM; in the experiment on PC-3 prostate it was 29.8 µM; in the experiment on HCT-116 colon, 0.457 µM and 0.955 µM; in the experiment on A498 renal, 7.72 µM; in the experiment on OVCAR-3 ovarian, 1.45 µM.

`Cc1nnc2n1N=C(c1ccccc1)C(c1ccccc1)S2` (stereo unspecified): the TGI in the experiment on DMS 273 small cell lung was above 100 µM; in the experiment on SK-MEL-2 melanoma, above 100 µM; in the experiment on ACHN renal, above 100 µM; in the experiment on KM20L2 colon, 76.3 µM; in the experiment with DMS 114 small cell lung, 52.4 µM; with HCT-116 colon, above 100 µM. The TGI in the experiment with A498 renal and with OVCAR-3 ovarian was above 100 µM each time.

As for `Cc1cc2c(c(C(=O)O)c1C)-c1cccc(Cl)c1C2=O`, the TGI with DMS 273 small cell lung, with SK-MEL-2 melanoma, in the experiment with ACHN renal, in the experiment on KM20L2 colon, in the experiment on DMS 114 small cell lung and with OVCAR-3 ovarian was above 100 µM throughout.

For `CN(C)C(=S)/N=c1\ss/c(=N\C(=S)N(C)C)n1-c1cccc(Cl)c1`, the TGI in the experiment with DMS 273 small cell lung, in the experiment with SK-MEL-2 melanoma, in the experiment on ACHN renal, in the experiment on KM20L2 colon, in the experiment on DMS 114 small cell lung and in the experiment on HCT-116 colon was above 100 µM in each case. The TGI in the experiment with A498 renal and in the experiment on OVCAR-3 ovarian was above 100 µM throughout.

Regarding `O=C(CC1=Nc2nnc(CCCCCCCc3nnc4n3C(=O)C(CC(=O)c3ccc5ccccc5c3)=N4)n2C1=O)c1ccc2ccccc2c1`, the TGI in the experiment with DMS 273 small cell lung, in the experiment with SK-MEL-2 melanoma, with ACHN renal, in the experiment with KM20L2 colon, with DMS 114 small cell lung and in the experiment with HCT-116 colon was above 100 µM each time. The TGI in the experiment with OVCAR-3 ovarian is above 100 µM.

Turning to `COC(=O)C1CC(c2ccc(OC)c(OC)c2)OC1=O` (mixture of isomers), the TGI in the experiment on DMS 273 small cell lung, in the experiment on ACHN renal, with KM20L2 colon, in the experiment on DMS 114 small cell lung, in the experiment on HCT-116 colon and in the experiment on A498 renal was above 100 µM in each case. The same compound registered a TGI in the experiment on OVCAR-3 ovarian above 100 µM.

Consider `CCOc1ccc(NC(=O)/C(CC(=O)c2c[n+](=O)c3ccccc3n2[O-])=N\OCCCc2ccccc2)cc1`, for which the concentration for total growth inhibition (TGI) in the experiment on DMS 273 small cell lung, with SK-MEL-2 melanoma, in the experiment with ACHN renal, with KM20L2 colon, with DMS 114 small cell lung and in the experiment with HCT-116 colon was above 100 µM in each case. The concentration for total growth inhibition (TGI) in the experiment with A498 renal and in the experiment with OVCAR-3 ovarian was above 100 µM throughout.

With `CN1CCCC2[C@@H]3CCC4c5nonc5CC[C@]4(C)C3CC[C@@]21C` (stereo partly specified), the concentration for total growth inhibition (TGI) in the experiment on DMS 273 small cell lung, in the experiment with SK-MEL-2 melanoma, in the experiment with ACHN renal, in the experiment with KM20L2 colon, with DMS 114 small cell lung and with HCT-116 colon was above 100 µM in each case.

Take `CC(=O)[CH-]C(C)=O.CC(=O)[CH-]C(C)=O.[O-]c1ccccc1.[O-]c1ccccc1.[Ti+4]`: the GI50 in the experiment with DMS 273 small cell lung, in the experiment with SK-MEL-2 melanoma, with ACHN renal, with KM20L2 colon, in the experiment on DMS 114 small cell lung and in the experiment on HCT-116 colon was above 100 µM each time. Also, the TGI in the experiment with DMS 273 small cell lung, in the experiment with SK-MEL-2 melanoma, in the experiment on ACHN renal, with KM20L2 colon, with DMS 114 small cell lung and with HCT-116 colon was above 100 µM in each case.

For the compound `c1ccc2c(c1)[nH]c1c2nc2ccccn21`, the TGI in the experiment with DMS 273 small cell lung, in the experiment on SK-MEL-2 melanoma, with ACHN renal, in the experiment on KM20L2 colon, in the experiment on DMS 114 small cell lung and with HCT-116 colon was above 100 µM throughout. For the same compound, the TGI in the experiment with A498 renal was above 100 µM; in the experiment on OVCAR-3 ovarian, 59.8 µM and > 100 µM.

In the case of `Cc1ccc(C2=CC(=O)c3ccccc3C2=O)n1-c1ccccc1`, the TGI in the experiment with DMS 273 small cell lung was above 100 µM; in the experiment with KM20L2 colon, above 100 µM; in the experiment on DMS 114 small cell lung, 55.2 µM; with HCT-116 colon, above 100 µM; in the experiment with OVCAR-3 ovarian it was above 100 µM.

Turning to `COC(=O)C1C=CCC2CCCCC21N1CCCC1` (stereo unspecified), the TGI in the experiment with DMS 273 small cell lung, in the experiment on ACHN renal, in the experiment on KM20L2 colon, in the experiment on DMS 114 small cell lung, in the experiment on HCT-116 colon and in the experiment with A498 renal was above 100 µM throughout. Moreover, the TGI in the experiment with OVCAR-3 ovarian was above 100 µM.

For the compound `Cc1cc(Cl)ccc1NC(=O)CCCC(=O)C1C/C(=N/O)CC/C1=N\O` (stereo unspecified), the TGI in the experiment on DMS 273 small cell lung, with SK-MEL-2 melanoma, in the experiment with ACHN renal, with KM20L2 colon, in the experiment with DMS 114 small cell lung and in the experiment on HCT-116 colon was above 100 µM in each case. For the same compound, the total growth inhibition concentration (TGI) with A498 renal and with OVCAR-3 ovarian was above 100 µM in each case.

With `Cn1c(=O)oc2cc(C3CCC(=O)N3Cc3csc(-c4ccccc4)n3)ccc21` (stereo unspecified), the TGI in the experiment on DMS 273 small cell lung, in the experiment with SK-MEL-2 melanoma, with ACHN renal, with KM20L2 colon, with DMS 114 small cell lung and with HCT-116 colon was above 100 µM each time.

On to `N/N=C(/Cc1ccccc1)NNO`, for which the TGI in the experiment on DMS 273 small cell lung, with SK-MEL-2 melanoma, in the experiment with ACHN renal, in the experiment with KM20L2 colon, in the experiment on DMS 114 small cell lung and in the experiment on HCT-116 colon was above 100 µM throughout. The TGI in the experiment on A498 renal and in the experiment with OVCAR-3 ovarian was above 100 µM in each case.

On to `Cc1cccc(C)c1NC(=O)C(=O)Cc1nc2ccccc2s1`, for which the TGI in the experiment on DMS 273 small cell lung, in the experiment on SK-MEL-2 melanoma, with ACHN renal, in the experiment with KM20L2 colon, in the experiment with DMS 114 small cell lung and in the experiment with HCT-116 colon was above 100 µM in each case. Moreover, the TGI with A498 renal and in the experiment on OVCAR-3 ovarian was above 100 µM each time.

With `C1=CC(=P(c2ccccc2)(c2ccccc2)c2ccccc2)C=C1`, the TGI came to 26.4 µM in the experiment with DMS 273 small cell lung; 30.3 µM in the experiment with SK-MEL-2 melanoma; 28.2 µM in the experiment with ACHN renal; 31.1 µM in the experiment with KM20L2 colon; 15.9 µM in the experiment on DMS 114 small cell lung; 23.7 µM in the experiment on OVCAR-3 ovarian.

Broadly, the TGI is the concentration at which net growth stops. High values mean less potent growth arrest, low ones more potent growth arrest. In general, GI50 refers to the concentration giving 50% growth inhibition.
